System: mildew of wheat (Erysiphe graminis forma specialis tritici)
Assay: Activity against mildew of wheat (protective spray on potted wheat seedlings)
Assay type: in vivo
Details: wheat seedlings cv. Kanzler, inoculated 24 h after spraying, evaluated after 7 days
Protocol: The active compounds, separately or together, are formulated as a 10% emulsion in a mixture of 63% by weight of cyclohexanone and 27% by weight of emulsifier, and diluted with water to the desired concentration.
Evaluation is carried out by determining the infected leaf areas in percent. These percentages are converted into efficacies. The efficacy (W) is calculated as follows using Abbot's formula: W=(1−α/β)·100 α corresponds to the fungal infection of the treated plants in % and β corresponds to the fungal infection of the untreated (control) plants in %
An efficacy of 0 means that the infection level of the treated plants corresponds to that of the untreated control plants; an efficacy of 100 means that the treated plants were not infected.
The expected efficacies of the mixtures of the active compounds were determined using Colby's formula [F. S. Colby, Weeds 15, 20–22 (1967)] and compared with the observed efficacies. • Colby's formula: E=x+y−x·y/100 E expected efficacy, expressed in % of the untreated control, when using the mixture of the active compounds A and B at the concentrations a and b x efficacy, expressed in % of the untreated control, when using active compound A at a concentration of a y efficacy, expressed in % of the untreated control, when using active compound B at a concentration of b.
Leaves of potted wheat seedlings cv. “Kanzler” were sprayed to runoff point with an aqueous preparation of active compound which was prepared from a stock solution comprising 10% of active compound, 63% of cyclohexanone and 27% of emulsifier and, 24 h after the spray coating had dried on, dusted with spores of mildew of wheat (Erysiphe graminis forma specialis tritici). The test plants were subsequently placed in climatized chambers at 20–24° C. and 60–90% relative atmospheric humidity for 7 days. The extent of the development of the infection on the leaves was then determined visually.
The visually determined values for the percentage of infected leaf areas were converted into efficacies as % of the untreated control. An efficacy of 0 means the same degree of infection as in the untreated control, an efficacy of 100 means 0% infection. The expected efficacies for active compound combinations were determined using Colby's formula (Colby, S. R. “Calculating synergistic and antagonistic responses of herbicide combinations”, Weeds, 15 (1967), 20–22) and compared with the observed efficacies.

Row | Structure (SMILES) | Efficacy in % of the untreated control (0.25 ppm) [%] | Efficacy in % of the untreated control (1 ppm) [%]
1 | CC(Cc1ccc(C(C)(C)C)cc1)CN1C[C@@H](C)O[C@@H](C)C1 (stereo partly shown) [Compound I.a, Fenpropimorph] | 55 | 
2 | CC(Cc1ccc(C(C)(C)C)cc1)CN1CCCCC1 (stereo not shown) [Compound I.b, Fenpropidin] | 55 | 
3 | CCCCCCCCCCCCCN1CC(C)OC(C)C1 (stereo not shown) [Compound I.c, Tridemorph] | 0 | 0
